This assay has as its system Acinetobacter baumannii ATCC17961. In words: Antimicrobial susceptibility testing: 90% growth inhibitory concentration (IC90) determination. It counts as cell-based. The following applies: 90% growth inhibitory concentration, Acinetobacter baumannii ATCC17961, Iso-Sensitest broth, OD 600 nm over 16 h, read-out: ATCC 17961 IC90. Here is the method: Assay Procedures Antimicrobial Susceptibility Testing: 90% Growth Inhibitory Concentration (IC90) Determination
The in vitro antimicrobial activity of the compounds was determined according to the following procedure:
The assay used a 10-points Iso-Sensitest broth medium to measure quantitatively the in vitro activity of the compounds against Acinetobacter baumannii ATCC17961.
Stock compounds in DMSO were serially twofold diluted (e.g. range from 50 to 0.097 μM final concentration) in 384 wells microtiter plates and inoculated with 49 μl the bacterial suspension in Iso-Sensitest medium to have a final cell concentration of ˜5×10^(5) CFU/ml in a final volume/well of 50 ul/well. Microtiter plates were incubated at 35±2° C.
Bacterial cell growth was determined with the measurement of optical density at λ=600 nm each 20 minutes over a time course of 16h. Growth inhibition was calculated during the logarithmic growth of the bacterial cells with determination of the concentration inhibiting 50% (IC50) and 90% (IC90) of the growth.
Table 1 provides the 90% growth inhibitory concentrations (IC90) in micromoles per liter of the compounds of present invention obtained against the strain Acinetobacter baumannii ATCC17961.

The mark [1] stands for this setting: Acinetobacter baumannii, ATCC17961, 16 h.

Where a name gives a salt, the structure may show the parent alone. Read-outs that look alike come from different tables or passages of the source.

Consider `COCCn1ncc(-c2ccc(-c3cnc(C(=O)Nc4ccc(C(=O)N5CCN(C(=O)C6CC[N+](C)(CC7CNC7)CC6)CC5)c(Cl)c4)n3C)c(F)c2F)c1C` (stereo not shown) [Example B21, N-[4-[4-[1-(azetidin-3-ylmethyl)-1-methyl-piperidin-1-ium-4-carbonyl]piperazine-1-carbonyl]-3-chloro-phenyl]-5-[2,3-difluoro-4-[1-(2-methoxyethyl)-5-methyl-pyrazol-4-yl]phenyl]-1-methyl-imidazole-2-carboxamide; formic acid; formate], for which the IC90 under setting [1] turned out to be 100 nM.

Consider `COCCn1ncc(-c2ccc(-c3cnc(C(=O)Nc4ccc(C(=O)N5CCC(C(=O)N6CC[N+](CC(=O)O)(CC7CNC7)CC6)CC5)c(Cl)c4)n3C)c(F)c2F)c1C` [Example B22, 2-[1-(azetidin-3-ylmethyl)-4-[1-[2-chloro-4-[[5-[2,3-difluoro-4-[1-(2-methoxyethyl)-5-methyl-pyrazol-4-yl]phenyl]-1-methyl-imidazole-2-carbonyl]amino]benzoyl]piperidine-4-carbonyl]piperazin-1-ium-1-yl]acetic acid; formate], for which the IC90 under setting [1] was 330 nM.

On to `COCCn1ncc(-c2ccc(-c3cnc(C(=O)Nc4ccc(C(=O)N5CCC(C(=O)N6CC[N+](C)(CC7CNC7)CC6)CC5)c(Cl)c4)n3C)c(F)c2F)c1C` [Example B23, N-[4-[4-[4-(azetidin-3-ylmethyl)-4-methyl-piperazin-4-ium-1-carbonyl]piperidine-1-carbonyl]-3-chloro-phenyl]-5-[2,3-difluoro-4-[1-(2-methoxyethyl)-5-methyl-pyrazol-4-yl]phenyl]-1-methyl-imidazole-2-carboxamide; formate], for which the IC90 under setting [1] was 98 nM.

Turning to `COCCn1ncc(-c2ccc(-c3cnc(C(=O)Nc4ccc(C(=O)N5CCC(C(=O)N6CC[N+](CC(N)=O)(CC7CNC7)CC6)CC5)c(Cl)c4)n3C)c(F)c2F)c1C` [Example B24, N-[4-[4-[4-(2-amino-2-oxo-ethyl)-4-(azetidin-3-ylmethyl)piperazin-4-ium-1-carbonyl]piperidine-1-carbonyl]-3-chloro-phenyl]-5-[2,3-difluoro-4-[1-(2-methoxyethyl)-5-methyl-pyrazol-4-yl]phenyl]-1-methyl-imidazole-2-carboxamide; 2,2,2-trifluoroacetate; 2,2,2-trifluoroacetic acid], the IC90 under setting [1] turned out to be 95 nM.

Regarding `COCCn1cc(-c2ccc(-c3cnc(C(=O)Nc4ccc(C(=O)N5CCN(C(=O)C6[C@H]7C[N+](C)(C)C[C@@H]67)CC5)c(Cl)c4)n3C)c(F)c2F)c(C)n1` (stereo partly drawn) [Example B25, N-[3-chloro-4-[4-[(1R,5S)-3,3-dimethyl-3-azoniabicyclo[3.10]hexane-6-carbonyl]piperazine-1-carbonyl]phenyl]-5-[2,3-difluoro-4-[1-(2-methoxyethyl)-3-methyl-pyrazol-4-yl]phenyl]-1-methyl-imidazole-2-carboxamide; formate], the 90% effect concentration (IC90) worked out at 270 nM.

`COCCn1ncc(-c2ccc(-c3cnc(C(=O)Nc4ccc(C(=O)N5CCN(C(=O)[C@H]6[C@@H]7C[N+](C)(C)C[C@@H]76)CC5)c(Cl)c4)n3C)c(F)c2F)c1C` [Example B26, N-[3-chloro-4-[4-[(1R,5S)-3,3-dimethyl-3-azoniabicyclo[3.10]hexane-6-carbonyl]piperazine-1-carbonyl]phenyl]-5-[2,3-difluoro-4-[1-(2-methoxyethyl)-5-methyl-pyrazol-4-yl]phenyl]-1-methyl-imidazole-2-carboxamide; formate]: the IC90 under setting [1] came to 64 nM.

As for `COCCn1cc(-c2ccc(-c3cnc(C(=O)Nc4ccc(C(=O)N5CCN(C(=O)[C@@H]6C[C@@H](O)C[N+]6(C)CCCO)CC5)c(Cl)c4)n3C)c(F)c2F)c(C)n1` (stereo partly drawn) [Example B27, N-[3-chloro-4-[4-[(2S,4R)-4-hydroxy-1-(3-hydroxypropyl)-1-methyl-pyrrolidin-1-ium-2-carbonyl]piperazine-1-carbonyl]phenyl]-5-[2,3-difluoro-4-[1-(2-methoxyethyl)-3-methyl-pyrazol-4-yl]phenyl]-1-methyl-imidazole-2-carboxamide; iodide], the concentration for an effect of 90% (IC90) under setting [1] came out at 240 nM.

(Values after patent US12421211B2, “Heterocyclic compounds” (Hoffmann-La Roche Inc., priority 2021, dated 2025).)
